Here are results for nine compounds from patent publication US8183239B2, “Substituted piperazines and piperidines as modulators of the neuropeptide Y2 receptor” (Janssen Pharmaceutica NV, priority 2005, dated 2012).

pIC50: −log10 of the molar value. Like-named read-outs stand apart in the source and are kept apart here.

One assay has as its system rats. The settings on record: icv administration; cited from earlier work.
Assay [1] deals with T1, Y2 receptors (Homo sapiens, UniProt P49146).
T1 construct: endogenous in cells; host or cells: KAN-Ts cells (membranes)
T1 sequence (P49146 1-381): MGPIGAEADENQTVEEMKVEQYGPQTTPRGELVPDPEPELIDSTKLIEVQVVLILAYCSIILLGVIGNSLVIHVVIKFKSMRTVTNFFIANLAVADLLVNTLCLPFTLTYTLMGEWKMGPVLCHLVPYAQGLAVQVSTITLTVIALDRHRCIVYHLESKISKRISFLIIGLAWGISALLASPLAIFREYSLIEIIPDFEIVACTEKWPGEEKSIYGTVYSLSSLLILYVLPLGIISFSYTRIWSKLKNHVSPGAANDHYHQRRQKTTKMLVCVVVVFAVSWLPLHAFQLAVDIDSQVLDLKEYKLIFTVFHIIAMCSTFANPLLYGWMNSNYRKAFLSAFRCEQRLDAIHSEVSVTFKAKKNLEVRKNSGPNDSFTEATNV
Description: Radioligand binding assay ([125I]PYY, KAN-Ts cell membranes). Particulars: average of results, read-out: IC50. The method in brief: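 Membranes from KAN-Ts cells endogenously expressing Y2 incubated 1 h at rt with 80 pM [^125I]PYY ± test compound in HEPES buffer with NaCl, Ca^2+ and Mg^2+. Bound radioactivity collected by filtration; specific binding defined with […]. IC50 from sigmoidal fit, averaged over 3-8 duplicate experiments.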

Assay [2] has as its target T1, Y2 receptors. The assay can be described thus: [35S]GTPγS binding assay in KAN-Ts cells (inhibition of PYY-stimulated binding). It is filed as biochemical. The settings on record: KAN-Ts membranes. As to the method: [^35S] GTPγS binding assay in KAN-Ts cells
Membranes from KAN-Ts cells were prepared as described above. Membranes were thawed on ice and diluted in 50 mM Tris-HCl buffer, pH 7.4 containing 10 mM MgCl2, 1 mM EDTA, 100 mM NaCl, […], 0.25% BSA. Assay mixture ([…]) were preincubated with compounds for 30 min at rt. Then, […] of [^35S]GTPγS in assay buffer was added to a final concentration of 200 pM and the assay mixtures were incubated for 1 h at rt. Reactions were terminated by rapid filtration thought GF/C filters. Filters were washed twice with ice cold 50 mM Tris-HCl, pH 7.4 containing 10 mM MgCl2. Basal [^35S]GTPγS was measured in the absence of compounds. In initial experiments, nonspecific binding was measured in the presence of […]. This nonspecific binding never exceeded 10% of basal binding and was thus not subtracted from experimental data. Stimulation of [^35S]GTPγS is presented as percentage over basal and was calculated as one hundred times the difference between stimulated and basal binding (in cpm). […] EC50 (concentration of compound at which 50% of its own maximal stimulation is obtained) and IC50 (concentration of its own maximal inhibition of PYY-stimulated [^35S]GTPγS binding is obtained) were derived from the curves. IC50 values were corrected as follows: corrected IC50 (IC50corr)=IC50/(1+[PYY]/EC50 (PYY)) and pIC50corr=−log IC50corr.

Take `N=C(N)NCCC[C@H](NC(=O)CC1(CC(=O)N2CCN(C3c4ccccc4NC(=O)c4ccccc43)CC2)CCCC1)C(=O)NCCn1c(=O)n(-c2ccccc2)n(-c2ccccc2)c1=O` (stereo partly shown) [BIIE0246]: in the assay with rats, the ethanol self-administration entry was “dose dependently reduced ethanol self-administration”.

With `CCNC(=O)C(c1ccccc1)C1CCN(c2ccc(NC(=O)Nc3c(C)noc3C)cc2F)CC1` (stereo not shown) [Example 10, 2-(1-{4-[3-(3,5-Dimethyl-isoxazol-4-yl)-ureido]-2-fluoro-phenyl}-piperidin-4-yl)-N-ethyl-2-phenyl-acetamide], the pIC50 on Y2 receptors [1] (Table 1, [125I]PYY 80 pM) is 7.82. At Y2 receptors [2], the “functional behaviour in [35S]GTPγS assay” value is given as “antagonist”.

As for `CCN(CC)C(=O)C(c1ccccc1)N1CCN(c2ccc(CC(=O)N(C)Cc3ccccc3)cc2F)CC1` (stereo not shown) [Example 286], the pIC50 on Y2 receptors [1] (Table 2, [125I]PYY 80 pM) is 5.68.

On to `CCN(Cc1ccccc1)C(=O)Cc1ccc(N2CCN(C(C(=O)N(CC)CC)c3ccccc3)CC2)c(F)c1` (stereo not shown) [Example 287], for which the pIC50 on Y2 receptors [1] (Table 2, [125I]PYY 80 pM) was 5.66.

As to `CCC(CC)NC(=O)Cc1ccc(N2CCN(C(C(=O)N3CCC(F)(F)C3)c3ccccc3)CC2)c(F)c1` (stereo not shown) [Example 288, 2-(4-{4-[2-(3,3-Difluoro-pyrrolidin-1-yl)-2-oxo-1-phenyl-ethyl]-piperazin-1-yl}-3-fluoro-phenyl)-N-(1-ethyl-propyl)-acetamide], the pIC50 at Y2 receptors [1] (Table 2, [125I]PYY 80 pM) was 5.68.

As for `CCN(CC)C(=O)Cc1ccc(N2CCN(C(C(=O)N3CCC(F)(F)C3)c3ccccc3)CC2)c(F)c1` (stereo not shown) [Example 289, 2-(4-{4-[2-(3,3-Difluoro-pyrrolidin-1-yl)-2-oxo-1-phenyl-ethyl]-piperazin-1-yl}-3-fluoro-phenyl)-N,N-diethyl-acetamide], the pIC50 at Y2 receptors [1] (Table 2, [125I]PYY 80 pM) was 5.46.

Consider `CCNC(=O)Cc1ccc(N2CCN(C(C(=O)N(CC)CC)c3ccccc3)CC2)c(F)c1` (stereo not shown) [Example 290, N,N-Diethyl-2-[4-(4-ethylcarbamoylmethyl-2-fluoro-phenyl)-piperazin-1-yl]-2-phenyl-acetamide], for which, at Y2 receptors [1] (Table 2, [125I]PYY 80 pM), the pIC50 was 5.37.

In the case of `CCN(CC)C(=O)C(c1ccccc1)N1CCN(c2ccc(CC(=O)NC3CCCC3)cc2F)CC1` (stereo not shown) [Example 291, 2-[4-(4-Cyclopentylcarbamoylmethyl-2-fluoro-phenyl)-piperazin-1-yl]-N,N-diethyl-2-phenyl-acetamide], at Y2 receptors [1] (Table 2, [125I]PYY 80 pM), the pIC50 is 5.06.

`CCC(CC)C(=O)Nc1ccc(N2CCN(C(C(=O)N(C)C)c3ccccc3)CC2)c(F)c1` (stereo not shown) [Example 292, N-{4-[4-(Dimethylcarbamoyl-phenyl-methyl)-piperazin-1-yl]-3-fluoro-phenyl}-2-ethyl-butyramide]: at Y2 receptors [1] (Table 2, [125I]PYY 80 pM), the negative logarithm of the IC50 (pIC50) is 6.98.
